The text below walks through data of patent publication US9534300B2, “Water soluble substituted imidazolines as corrosion inhibitors for ferrous metals” (Ecolab USA, Inc., priority 2014, dated 2017).

The data set is described as follows: Solubility in water of synthesized substituted imidazolines. The data set is classed as physicochemical.
Regarding `CCCCCCCCCCCC1=NCCN1CCNCCC(=O)O` [No. 7, 3-((2-(2-undecyl-4,5-dihydro-1H-imidazol-1-yl)ethyl)amino)propanoic acid], the Solubility in water result is listed as “Yes Yes Yes”.

Take `CCCCCC1=NCCN1CCNCCC(=O)O` [No. 5, 3-((2-(2-pentyl-4,5-dihydro-1H-imidazol-1-yl)ethyl)amino)propanoic acid]: the Solubility in water entry was “Yes Yes Yes”.

As for `CCCCCCCC1=NCCN1CCNCCC(=O)O` [No. 6, 3-((2-(2-heptyl-4,5-dihydro-1H-imidazol-1-yl)ethyl)amino)propanoic acid], the Solubility in water entry is recorded as “Yes Yes Yes”.
